In paper PMC7893776, “Selecting an anti-malarial clinical candidate from two potent dihydroisoquinolones” (Malaria Journal, 2021):
Blank lines part the entries; values can stand above or below the compound they belong to.

Experiments:
Format in all cases: in vitro ADME
[1] = Microsomal stability, human; details: human microsomes; for CLint in vitro: independent replicate to Table 4; for CLint in vivo: scaled up using PBSF
Description: (§1) The metabolic stability assay was performed by incubating compounds individually (0.8, 4, or 20 µM) with mouse, rat, dog and human liver microsomes (Fisher, 0.5 mg/mL protein concentration) at 37 °C. The metabolic reaction was initiated by the addition of a NADPH-regenerating system and quenched at various time points by the addition of acetonitrile according to a published method.
(§2) The remaining concentration of each compound was measured as a ratio of peak area to the internal standard. The log peak area ratio was plotted vs. time (h), and the slope was determined to calculate the elimination rate constant [k = (− 2.303) * slope]. If deviation from first order kinetics was evident, only the initial linear portion of the plot was used to determine the rate constate, k. The half-life (h) was calculated as t1/2 = 0.693/k. Intrinsic clearance in vitro was calculated as CLintin vitro = (1000)*(0.693/t1/2*60)/0.5, where microsomal concentration in the reaction solution was 0.5 mg/mL; 1000 and 60 are scaling factors for volume (µL) and time (min), respectively. The intrinsic in vitro clearance was scaled to the intrinsic in vivo clearance using physiology based scaling factor (PBSF): CLint in vivo= CLint in vitro *PBSF: (microsome protein/gram liver) * (gram liver/kg b.w.), with PBSF: 47 (mouse), 47(rat), 58 (dog), 32 (human); and liver weight proportions: 54.9 (mouse), 36.6 (rat), 32.9 (dog) 25.7 (human).

[2] = Microsomal stability, rat; details: rat microsomes; for CLint in vitro: independent replicate to Table 4; for CLint in vivo: scaled up using PBSF
Description: as §1, §2

[3] = Microsomal stability, dog; details: dog microsomes; for CLint in vitro: independent replicate to Table 4; for CLint in vivo: scaled up using PBSF
Description: as §1, §2

[4] = Microsomal stability, mouse; details: mouse microsomes; for CLint in vitro: independent replicate to Table 4; for CLint in vivo: scaled up using PBSF
Description: as §1, §2

CLint ([1]; 0.8 µM): 61.7 ± 13.2 µl/min/mg protein
t1/2 ([1]; 0.8 µM): 0.4 ± 0.1 h
CLint in vitro ([1]; 0.8 µM): 52.4 ± 1.1 µl/min/mg protein
CLint in vivo ([1]; 0.8 µM): 2.83 ± 0.06 L/h/kg
CLint in vitro ([1]; 4 µM): 40.4 ± 0.9 µl/min/mg protein
CLint in vivo ([1]; 4 µM): 2.18 ± 0.048 L/h/kg
CLint in vitro ([1]; 20 µM): 25.3 ± 0.4 µl/min/mg protein
CLint in vivo ([1]; 20 µM): 1.36 ± 0.018 L/h/kg
CLint ([2]; 0.8 µM): < 7 µl/min/mg protein
t1/2 ([2]; 0.8 µM): > 4 h
CLint in vitro ([2]; 0.8 µM): <7 µl/min/mg protein
CLint in vivo ([2]; 0.8 µM): <0.702 L/h/kg
CLint in vitro ([2]; 4 µM): <7 µl/min/mg protein
CLint in vivo ([2]; 4 µM): <0.702 L/h/kg
CLint in vitro ([2]; 20 µM): <7 µl/min/mg protein
CLint in vivo ([2]; 20 µM): <0.702 L/h/kg
CLint ([3]; 0.8 µM): 10.9 ± 1.5 µl/min/mg protein
t1/2 ([3]; 0.8 µM): 2.2 ± 0.4 h
CLint in vitro ([3]; 0.8 µM): 9.8 ± 0.4 µl/min/mg protein
CLint in vivo ([3]; 0.8 µM): 0.846 ± 0.03 L/h/kg
CLint in vitro ([3]; 4 µM): 9.5 ± 0.3 µl/min/mg protein
CLint in vivo ([3]; 4 µM): 0.822 ± 0.03 L/h/kg
CLint in vitro ([3]; 20 µM): 6.0 ± 0.4 µl/min/mg protein
CLint in vivo ([3]; 20 µM): 0.516 ± 0.036 L/h/kg
CLint ([4]; 0.8 µM): 32.1 ± 2.1 µl/min/mg protein
t1/2 ([4]; 0.8 µM): 0.8 ± 0.1 h
CLint in vitro ([4]; 0.8 µM): 30.6 ± 1.4 µl/min/mg protein
CLint in vivo ([4]; 0.8 µM): 4.3 ± 0.204 L/h/kg
CLint in vitro ([4]; 4 µM): 26.9 ± 0.6 µl/min/mg protein
CLint in vivo ([4]; 4 µM): 3.78 ± 0.126 L/h/kg
CLint in vitro ([4]; 20 µM): 10.5 ± 0.4 µl/min/mg protein
Structure (SMILES): N#Cc1cc(NC(=O)[C@@H]2c3ccccc3C(=O)N(CC(F)(F)F)[C@H]2c2cccnc2)ccc1F [(-)-SJ733]

CLint ([1]; 0.8 µM): < 7 µl/min/mg protein
t1/2 ([1]; 0.8 µM): > 4 h
CLint ([2]; 0.8 µM): < 7 µl/min/mg protein
t1/2 ([2]; 0.8 µM): > 4 h
CLint ([3]; 0.8 µM): < 7 µl/min/mg protein
t1/2 ([3]; 0.8 µM): > 4 h
CLint ([4]; 0.8 µM): < 7 µl/min/mg protein
t1/2 ([4]; 0.8 µM): > 4 h
Structure (SMILES): N#Cc1cc(NC(=O)[C@@H]2c3ccccc3C(=O)N(CC(F)(F)F)[C@H]2c2cn[nH]c2)ccc1F [(−)-SJ311]
